Experiments:
[1] = target: T1, Sodium- and chloride-dependent GABA transporter 1 (Mus musculus, UniProt P31648); experiment: Inhibition of mouse GAT1 expressed in HEK293 cells assessed as decrease in [3H]GABA uptake; type: cell-based
[2] = Retardation factor of the compound using 25%NH3/MeOH/DCM/PE at ratio of 45:225:600:90 as solvent system by thin layer chromatography; type: physicochemical
GABA transporter 4 = target: T2, GABA transporter 4 (Mus musculus, UniProt P31650); experiment: Inhibition of mouse GAT4 expressed in HEK293 cells assessed as decrease in [3H]GABA uptake; type: cell-based
T2 sequence (P31650 whole entry): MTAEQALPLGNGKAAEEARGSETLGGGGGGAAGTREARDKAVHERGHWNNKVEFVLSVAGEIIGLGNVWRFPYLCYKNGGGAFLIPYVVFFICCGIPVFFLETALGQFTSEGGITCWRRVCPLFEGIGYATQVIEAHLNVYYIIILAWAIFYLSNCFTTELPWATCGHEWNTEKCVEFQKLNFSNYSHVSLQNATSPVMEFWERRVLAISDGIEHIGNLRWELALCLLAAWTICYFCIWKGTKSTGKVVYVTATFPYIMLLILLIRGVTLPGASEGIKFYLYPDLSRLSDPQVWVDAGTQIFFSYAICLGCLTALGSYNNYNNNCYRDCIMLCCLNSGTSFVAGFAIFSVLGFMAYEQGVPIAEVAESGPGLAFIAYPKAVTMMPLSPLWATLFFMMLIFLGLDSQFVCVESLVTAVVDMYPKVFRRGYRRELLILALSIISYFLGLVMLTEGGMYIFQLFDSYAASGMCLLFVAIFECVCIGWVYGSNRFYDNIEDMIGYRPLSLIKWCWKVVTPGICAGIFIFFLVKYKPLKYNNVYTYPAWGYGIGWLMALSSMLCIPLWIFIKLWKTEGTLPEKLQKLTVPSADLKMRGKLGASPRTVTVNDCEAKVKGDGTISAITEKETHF

GABA transporter 2 = target: T3, GABA transporter 2 (Mus musculus, UniProt P31651); experiment: Inhibition of mouse GAT2 expressed in HEK293 cells assessed as decrease in [3H]GABA uptake; type: cell-based
T3 sequence (P31651 whole entry): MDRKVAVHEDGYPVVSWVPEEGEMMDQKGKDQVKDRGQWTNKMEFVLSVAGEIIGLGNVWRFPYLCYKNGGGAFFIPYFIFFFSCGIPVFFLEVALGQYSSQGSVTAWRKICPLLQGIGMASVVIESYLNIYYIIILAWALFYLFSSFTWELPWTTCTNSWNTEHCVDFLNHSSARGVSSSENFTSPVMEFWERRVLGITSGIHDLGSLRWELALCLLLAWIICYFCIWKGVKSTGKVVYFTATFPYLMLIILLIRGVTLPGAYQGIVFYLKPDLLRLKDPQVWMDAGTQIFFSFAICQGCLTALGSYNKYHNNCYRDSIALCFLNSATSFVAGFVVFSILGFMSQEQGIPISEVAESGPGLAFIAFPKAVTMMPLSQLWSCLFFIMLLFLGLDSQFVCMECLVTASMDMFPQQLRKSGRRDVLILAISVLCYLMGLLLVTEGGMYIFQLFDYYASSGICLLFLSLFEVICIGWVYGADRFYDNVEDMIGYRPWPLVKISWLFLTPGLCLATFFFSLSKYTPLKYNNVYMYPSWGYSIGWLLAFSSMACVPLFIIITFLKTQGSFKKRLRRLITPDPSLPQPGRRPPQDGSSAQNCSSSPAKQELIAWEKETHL

[3] = target: T1, Sodium- and chloride-dependent GABA transporter 1; experiment: Displacement of NO711 from mouse GAT1 expressed in HEK293 cells by LC-MS/MS analysis; type: cell-based
GABA transporter 3 = target: T4, GABA transporter 3 (Mus musculus, UniProt P31649); experiment: Inhibition of mouse GAT3 expressed in HEK293 cells assessed as decrease in [3H]GABA uptake; type: cell-based
T4 sequence (P31649 whole entry): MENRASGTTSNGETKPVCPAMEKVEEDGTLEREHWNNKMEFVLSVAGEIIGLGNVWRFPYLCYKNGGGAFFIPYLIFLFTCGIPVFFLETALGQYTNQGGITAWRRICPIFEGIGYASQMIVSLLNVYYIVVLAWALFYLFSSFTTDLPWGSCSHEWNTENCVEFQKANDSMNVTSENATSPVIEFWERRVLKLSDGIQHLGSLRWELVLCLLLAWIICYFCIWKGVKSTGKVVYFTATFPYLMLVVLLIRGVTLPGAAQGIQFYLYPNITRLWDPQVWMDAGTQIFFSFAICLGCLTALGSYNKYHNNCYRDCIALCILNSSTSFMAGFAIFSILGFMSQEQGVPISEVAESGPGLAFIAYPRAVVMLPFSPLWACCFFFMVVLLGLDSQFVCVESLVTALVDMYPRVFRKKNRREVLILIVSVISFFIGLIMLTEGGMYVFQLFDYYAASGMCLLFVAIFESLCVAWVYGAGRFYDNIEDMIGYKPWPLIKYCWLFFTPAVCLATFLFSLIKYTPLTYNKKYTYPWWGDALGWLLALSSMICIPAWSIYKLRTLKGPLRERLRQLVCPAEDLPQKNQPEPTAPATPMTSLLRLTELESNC

[4] = Retardation factor of the compound using hexane/ethanol/TEA at ratio of 7:2:1 as solvent system by thin layer chromatography; type: physicochemical

Row | SMILES | IC50 [1] [µM] | Rf [2] | IC50 (GABA transporter 4) [µM] | IC50 (GABA transporter 2) [µM] | Ki [3] [µM] | IC50 (GABA transporter 3) [µM] | Rf [4]
1 | Cc1ccc(CNC(=O)C(CCN)N2CCC(=C(c3ccccc3)c3ccccc3)CC2)cc1 (configuration not stated) | 11.2 | 0.73 | 11.5 | 5.89 | 29.5 | 16.2 | 
2 | CN(CCCC(c1ccccc1)c1ccccc1)C(CCN)C(=O)NCc1ccccc1 (configuration not stated) | 22.4 |  | 25.7 | 9.55 | 30.9 | 29.5 | 0.12
3 | CN(CCCC(c1ccccc1)c1ccccc1)C(CCN)C(=O)NCc1ccc(F)cc1 (configuration not stated) | 16.6 |  | 13.5 | 11.5 | 21.4 | 26.9 | 0.22
4 | Cc1ccc(CNC(=O)C(CCN)N2CCN(C(c3ccccc3)c3ccccc3)CC2)cc1 (configuration not stated) | 28.2 | 0.18 | 23.4 | 30.2 | 63.1 | 18.2 | 
5 | NCCC(C(=O)NCc1ccc(F)cc1)N1CCC(C(c2ccccc2)c2ccccc2)CC1 (configuration not stated) | 15.8 | 0.9 | 8.51 | 9.33 | 33.9 | 21.4 | 
6 | NCCC(NCCC=C(c1ccccc1)c1ccccc1)C(=O)NCc1ccc(F)cc1 (configuration not stated) | 27.5 |  | 31.6 | 12 | 22.9 | 24.5 | 0.15
7 | Cc1ccc(CNC(=O)C(CCN)NCCC=C(c2ccccc2)c2ccccc2)cc1 (configuration not stated) | 19.5 |  | 15.1 | 8.91 | 11 | 29.5 | 0.16
8 | NCCC(C(=O)NCc1ccc(Cl)cc1)N1CCC(C(c2ccccc2)c2ccccc2)CC1 (configuration not stated) | 11.2 | 0.77 | 10.2 | 9.77 | 30.2 | 9.55 | 
9 | NCCC(C(=O)NCc1ccccc1Cl)N1CCC(=C(c2ccccc2)c2ccccc2)CC1 (configuration not stated) | 13.5 | 0.78 | 11 | 10.2 | 10.5 | 15.5 | 
10 | Cc1ccc(CNC(=O)C(CCN)N2CCC(C(c3ccccc3)c3ccccc3)CC2)cc1 (configuration not stated) | 13.2 | 0.92 | 7.41 | 7.94 | 16.6 | 14.5 | 
11 | NCCC(C(=O)NCc1ccccc1Cl)N1CCC(C(c2ccccc2)c2ccccc2)CC1 (configuration not stated) | 13.8 | 0.79 | 10.2 | 5.89 | 25.7 | 11 | 
12 | CN(CCC=C(c1ccccc1)c1ccccc1)C(CCN)C(=O)NCc1ccc(Cl)cc1 (configuration not stated) | 12.9 | 0.73 | 12.6 | 9.77 | 11.2 | 11.2 | 
13 | NCCC(NCCC=C(c1ccccc1)c1ccccc1)C(=O)NCc1ccc(Cl)cc1 (configuration not stated) | 16.6 |  | 11.7 | 9.55 | 16.2 | 17.8 | 0.14
14 | CN(CCC=C(c1ccccc1)c1ccccc1)C(CCN)C(=O)NCc1ccccc1Cl (configuration not stated) | 12.9 | 0.76 | 9.12 | 6.46 | 11 | 10 | 
15 | NCCC(C(=O)NCc1ccccc1)N1CCC(=C(c2ccccc2)c2ccccc2)CC1 (configuration not stated) | 11 | 0.74 | 12 | 15.5 | 16.6 | 13.8 | 
16 | NCCC(C(=O)NCc1ccccc1)N1CCC(C(c2ccccc2)c2ccccc2)CC1 (configuration not stated) | 19.5 | 0.92 | 20 | 12 | 32.4 | 20.4 | 
17 | CN(CCC=C(c1ccccc1)c1ccccc1)C(CCN)C(=O)NCc1ccc(F)cc1 (configuration not stated) | 13.8 | 0.79 | 12.6 | 12.9 | 15.8 | 11 | 
18 | CN(CCC=C(c1ccccc1)c1ccccc1)C(CCN)C(=O)NCc1ccccc1 (configuration not stated) | 18.6 | 0.74 | 15.8 | 12 | 12.6 | 24 | 
19 | NCCC(C(=O)NCc1ccc(F)cc1)N1CCC(=C(c2ccccc2)c2ccccc2)CC1 (configuration not stated) | 11 | 0.77 | 13.5 | 10.2 | 25.1 | 12.3 | 
20 | NCCC(C(=O)NCc1ccc(Cl)cc1)N1CCC(=C(c2ccccc2)c2ccccc2)CC1 (configuration not stated) | 11 | 0.8 | 12 | 10.5 | 24 | 12.9 | 
21 | NCCC(C(=O)NCc1ccc(F)cc1)N1CCN(C(c2ccccc2)c2ccccc2)CC1 (configuration not stated) | 23.4 | 0.12 | 37.2 | 30.9 | 66.1 | 33.9 | 
22 | Cc1ccc(CNC(=O)C(CCN)N(C)CCC=C(c2ccccc2)c2ccccc2)cc1 (configuration not stated) | 8.51 | 0.84 | 9.77 | 9.55 | 9.12 | 12 | 
